From article PMC6013247, “Preclinical characterization of INCB053914, a novel pan-PIM kinase inhibitor, alone and in combination with anticancer agents, in models of hematologic malignancies” (PLoS ONE, 2018)

Assays:
[1] = system: PIM isozyme expression in Pfeiffer DLBCL cells; experiment: PIM isozyme expression in Pfeiffer DLBCL cells; type: cell-based
Pfeiffer DLBCL cells = experiment: In vitro proliferation of Pfeiffer DLBCL cells, single agents and combination; type: cell-based
Method: Synergistic effects of INCB053914 in combination with INCB050465, cytarabine, or itacitinib, were assessed based on the Bliss independence model. In this model, the expected additive effect, with the assumption that concentration dependent effects of 2 drugs (A and B) are independent, is given by the equation EIND = EA + EB – EA •EB, where 0 ≤ EIND ≤ 1; EA and EB are the magnitudes of effects of A and B alone at given concentrations.
The interaction between effects of A and B can be described by the equation Combination Index = EIND/ EOBS, where EOBS is the observed combined effect of A + B expressed as a probability (0 ≤ EOBS ≤ 1). If the point estimate of Combination Index and its upper 97.5% confidence limit are <1 then the combined effect is synergistic; if the 2-sided 95% confidence intervals (CI) encompass 1 then the combined effect is additive (ie, independent); if the point estimate of Combination Index and the lower 2.5% confidence limit are >1 then the combined effect of A + B are antagonistic.

[2] = system: human KG-1 AML xenografts; experiment: Tumor growth in KG-1 (AML) xenograft, combination with cytarabine; type: in vivo, mouse; conditions: KG-1 (AML) tumors
Method: Female immune compromised (severe combined immunodeficiency [SCID]) mice (5–9 weeks of age; Charles River Laboratories, Wilmington, Massachusetts) were inoculated with MOLM-16, KG-1, or KMS-12-BM cells. A cell suspension in Dulbecco’s phosphate-buffered saline (DPBS) (1 × 10^8 cells/ml) was mixed 1:1 (v/v) with matrigel, and 200 μl was injected subcutaneously into the flank of each mouse. […] The treatment of tumor-bearing mice started 7 to 24 days after tumor inoculation for efficacy studies and approximately 14 to 27 days after tumor inoculation for pharmacodynamic studies.
Synergistic effects of INCB053914 in combination with INCB050465, cytarabine, or itacitinib, were assessed based on the Bliss independence model [56, 57]. In this model, the expected additive effect, with the assumption that concentration dependent effects of 2 drugs (A and B) are independent, is given by the equation EIND = EA + EB – EA •EB, where 0 ≤ EIND ≤ 1; EA and EB are the magnitudes of effects of A and B alone at given concentrations.
The interaction between effects of A and B can be described by the equation Combination Index = EIND/ EOBS, where EOBS is the observed combined effect of A + B expressed as a probability (0 ≤ EOBS ≤ 1). […]

[3] = system: pBAD, pSTAT3 and MYC in INA-6 (MM) tumors; experiment: pBAD, pSTAT3 and MYC levels in INA-6 (MM) tumors; type: in vivo, mouse; conditions: INA-6 (MM) tumors in mice
Method: The PI3Kδ inhibitor INCB050465 (10 mg/kg once a day orally) was evaluated in combination with INCB053914 (30 mg/kg once a day orally) in mice bearing Pfeiffer (DLBCL) xenografts, a model sensitive to PI3Kδ inhibition (eight mice/group). Cytarabine was administered via intraperitoneal injection at a standard dose of 20 mg/kg twice a week, in combination with oral INCB053914 at a submaximally efficacious dose of 20 mg/kg twice a day for 12 days in mice bearing human KG-1 AML xenografts, a cytarabine-sensitive model (eight mice/group). The oral JAK1-selective inhibitor itacitinib (60 mg/kg twice a day orally) was assessed in combination with INCB053914 (100 mg/kg twice a day orally) after 8 days of administration to SCID mice bearing INA-6 (MM) xenografts (eight mice/group), a model sensitive to JAK inhibition.

INA-6 cells = experiment: STAT3(Y705) and PIM kinase substrate phosphorylation in INA-6 cells in culture; type: cell-based; conditions: INA-6 cells treated for 24 hours in culture
Method: Fig S1. Effects of INCB053914 on STAT3(Y705) and PIM kinase substrate phosphorylation in INA-6 cells treated for 24 hours in culture.

## CCOc1c([C@H](C)n2nc(C)c3c(N)ncnc32)cc(Cl)c(F)c1[C@@H]1CNC(=O)C1 [INCB050465]
[1]
  expression of all three PIM isozymes relative to baseline: concentration-dependent increases
  increase in PIM2 expression relative to baseline: ~ 2.5 fold
Pfeiffer DLBCL cells
  proliferation of Pfeiffer cells, single agent: inhibited

## Nc1ccn([C@@H]2O[C@H](CO)[C@@H](O)[C@@H]2O)c(=O)n1 [cytarabine, Cytarabine, reference compound]
[2]
  tumor growth, single agent: inhibited

## N#CCC1(n2cc(-c3ncnc4[nH]ccc34)cn2)CN(C2CCN(C(=O)c3ccnc(C(F)(F)F)c3F)CC2)C1 [itacitinib, reference compound]
[3]
  MYC levels: decreased MYC levels
  level of pSTAT3: decrease
INA-6 cells
  PIM kinase substrate phosphorylation: unaffected

## N#CC[C@H](C1CCCC1)n1cc(-c2ncnc3[nH]ccc23)cn1 [ruxolitinib]
INA-6 cells
  PIM kinase substrate phosphorylation: unaffected
